Experimental data published in publication PMC6683142, “The lipid-dependent structure and function of LacY can be recapitulated and analyzed in phospholipid-containing detergent micelles” (Scientific Reports, 2019).

Biological target: T1, lactose permease (LacY) (Escherichia coli, UniProt P02920, C154G)
T1 construct: LacY with all six native Trp residues and a C-terminal His6-Tag, DDM-solubilized, purified from PE-containing cells (correct topology)
T1 sequence (P02920 1-417 C154G): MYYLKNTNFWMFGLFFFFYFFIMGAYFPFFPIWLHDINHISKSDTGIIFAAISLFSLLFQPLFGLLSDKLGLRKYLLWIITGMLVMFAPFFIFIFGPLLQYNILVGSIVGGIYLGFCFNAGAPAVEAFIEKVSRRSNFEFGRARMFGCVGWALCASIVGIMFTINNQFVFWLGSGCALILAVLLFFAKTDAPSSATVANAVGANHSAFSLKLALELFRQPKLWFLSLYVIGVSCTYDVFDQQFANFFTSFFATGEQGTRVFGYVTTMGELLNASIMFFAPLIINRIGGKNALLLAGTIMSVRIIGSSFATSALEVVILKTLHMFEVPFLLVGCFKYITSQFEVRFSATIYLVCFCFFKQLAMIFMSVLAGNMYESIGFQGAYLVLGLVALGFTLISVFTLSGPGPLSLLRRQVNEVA
Test: Trp → α-NPG FRET (quenching of W151) on purified protein in DDM micelles
Assay type: binding

**Q.** Which Kd does the source give for `O=[N+]([O-])c1ccc(O[C@H]2O[C@H](CO)[C@H](O)[C@H](O)[C@H]2O)cc1` [α-NPG] here?
**A.** Its Kd is 5.9 µM.
